The values below come from EP0522504A1, “2-(2-substituted pyrrolidinylthio)-carbapenem derivatives” (Banyu Pharmaceutical Co., Ltd., priority 1991, dated 1993).

The subject of series [1] is bacteria. In words: disc diffusion test (method of Bauer et al.), antibacterial potency relative to thienamycin. Type of series: cell-based. Conditions: ratio to thienamycin (= 1.0) of geometrical average MIC, larger value = higher activity. As to the method: The antibacterial activities of the compounds of the present invention described in the Examples, as representative examples of the compound of the present invention, were measured by a disc diffusion test by the method of Bauer et al. (Amer. J. Clin. Pathol., vol. 45, p. 493 (1966)). Thienamycin or imipenem was used as the internal standard.
MIC of each test compound was calculated from the diameter of the inhibition ring formed by the disc containing the test compound by using the calculation formula reported by Humphrey and Lightbown (J. Gen. Microbiol., vol. 7, p. 129 (1952)). For each microorganism, a geometrical average of MIC was obtained, and the activity ratio to thienamycin was calculated.
The antibacterial activities are represented by the ratio to thienamycin (= 1.0), whereby the larger the numerical value, the higher the activities.

The subject of series [2] is bacteria. In words: in vitro antibacterial activities, agar plate dilution method (MIC). It counts as cell-based. Conditions: Mueller Hinton agar, inoculum 10⁶ CFU/mℓ, 37°C for 16 hours. As to the method: One platinum loopful of each test microorganism incubated overnight in Mueller Hinton broth, was inoculated to Mueller Hinton agar (inoculum size: 10⁶ CFU/mℓ). Such culture media contained antibacterial agents in various concentrations. After incubation at 37°C for 16 hours, the minimum inhibitory concentrations (MIC: µg/mℓ) were measured.

Series [3] addresses T1, DHP-I (Homo sapiens, UniProt P16444).
T1 sequence (P16444 17-385): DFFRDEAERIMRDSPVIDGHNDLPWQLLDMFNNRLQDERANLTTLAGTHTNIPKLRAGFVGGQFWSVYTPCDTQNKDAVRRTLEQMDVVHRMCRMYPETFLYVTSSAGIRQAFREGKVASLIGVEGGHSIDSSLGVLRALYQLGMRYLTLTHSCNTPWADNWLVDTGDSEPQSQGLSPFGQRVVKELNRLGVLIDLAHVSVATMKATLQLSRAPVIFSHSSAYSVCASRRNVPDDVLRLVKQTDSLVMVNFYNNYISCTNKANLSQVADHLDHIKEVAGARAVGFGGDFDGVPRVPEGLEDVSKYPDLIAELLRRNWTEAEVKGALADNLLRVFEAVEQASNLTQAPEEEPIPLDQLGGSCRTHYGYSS
In words: DHP-I susceptibility (method by Kropp et al.), ratio to imipenem. Type of series: in vitro ADME. The source says:
The DHP-I susceptibility was quantitatively analyzed by the method by Kropp et al., Antimicrob. Agents Chemother., vol. 22, p.

Where [4] appears, read: Pseudomonas aeruginosa, 16 h, P. aeruginosa MB 5002, read-out: Minimum Inhibitory Concentration(MIC).
Setting [5] is: Pseudomonas aeruginosa, 16 h, P. aeruginosa MB 5178, read-out: Minimum Inhibitory Concentration(MIC).
[6] abbreviates: Staphylococcus aureus, 209P / NIHJJC1, 16 h, S. aureus 209P NIHJ JC1, read-out: Minimum Inhibitory Concentration(MIC).
Where [7] appears, read: Staphylococcus aureus, 16 h, S. aureus BB 5939 (β-lactamase producing microorganism), read-out: Minimum Inhibitory Concentration(MIC).
Where [8] appears, read: Staphylococcus aureus, 16 h, S. aureus MB 4970, read-out: Minimum Inhibitory Concentration(MIC).
Setting [9] is: ratio to imipenem (=1.0), smaller value = higher stability.

The structures appear in SMILES notation. Converted amounts (≈) assume the structure as drawn. Like-named read-outs stand apart in the source and are kept apart here.

`C[C@@H](O)[C@H]1C(=O)N2C(C(=O)O)=C(S[C@@H]3CN[C@H](/C=C/C(N)=O)C3)[C@H](C)[C@H]12` [BO-2171, (1R,5S,6S)-2-[(2S,4S)-2-[(E)-2-(aminocarbonyl)vinyl]pyrrolidin-4-ylthio]-6-[(R)-1-hydroxyethyl]-1-methyl-1-carbapen-2-em-3-carboxylic acid, reference compound]: the results for the “Relative antibacterial potency to thienamycin” value (from here on “Relative antibacterial potency”) in series [1] (Meth-R S. aureus) and in series [1] (THM-R P.aeruginosa) were 7.68 and 3.28, respectively. Also, the MIC in series [2] (setting [4]) stood at 6.25 µg/mL (≈ 16.4 µM); in series [2] (setting [5]) it was 12.5 µg/mL (≈ 32.8 µM); in series [2] (setting [6]) it was 0.025 µg/mL (≈ 0.0655 µM); in series [2] (setting [7]), 6.25 µg/mL (≈ 16.4 µM); in series [2] (setting [8]) it was 0.025 µg/mL (≈ 0.0655 µM). In series [3], the DHP-I susceptibility is 0.3.

For `C[C@@H](O)[C@H]1C(=O)N2C(C(=O)O)=C(S[C@@H]3CN[C@H](/C=C\CN)C3)[C@H](C)[C@H]12` [Example 2, (1R,5S,6S)-2-[(2S,4S)-2-[(Z)-3-amino-1-propenyl]pyrrolidin-4-ylthio]-6-[(R)-1-hydroxyethyl]-1-methyl-1-carbapen-2-em-3-carboxylic acid], the entries for the “Relative antibacterial potency” value in series [1] (Meth-R S. aureus) and in series [1] (THM-R P.aeruginosa) were 12.9 and 15.2, respectively. The MIC is 0.78 µg/mL (≈ 2.12 µM) in series [2] (setting [4]); 1.56 µg/mL (≈ 4.25 µM) in series [2] (setting [5]); < 0.006 µg/mL in series [2] (setting [6]); 1.56 µg/mL (≈ 4.25 µM) in series [2] (setting [7]); 0.012 µg/mL (≈ 0.0327 µM) in series [2] (setting [8]). In addition, the DHP-I susceptibility in series [3] is <0.05.

As for `C/C(=C/[C@@H]1C[C@H](SC2=C(C(=O)O)N3C(=O)[C@H]([C@@H](C)O)[C@H]3[C@H]2C)CN1)CN.Cl` [Example 7, (1R,5S,6S)-2-[(2S,4S)-2-[(Z)-3-amino-2-methyl-1-propenyl]pyrrolidin-4-ylthio]-6-[(R)-1-hydroxyethyl]-1-methyl-1-carbapen-2-em-3-carboxylic acid hydrochloride], the “Relative antibacterial potency” value is given as 13.5 in series [1] (Meth-R S. aureus) and 31.3 in series [1] (THM-R P.aeruginosa). The MIC in series [2] (setting [4]) was 0.78 µg/mL; in series [2] (setting [5]) it was 1.56 µg/mL; in series [2] (setting [6]), < 0.006 µg/mL; in series [2] (setting [7]), 1.56 µg/mL; in series [2] (setting [8]), < 0.006 µg/mL. Besides, in series [3] (setting [9]), the DHP-I susceptibility is <0.05.

For `CNC/C(C)=C\[C@@H]1C[C@H](SC2=C(C(=O)O)N3C(=O)[C@H]([C@@H](C)O)[C@H]3[C@H]2C)CN1.Cl` [Example 9, (1R,5S,6S)-6-[(R)-1-hydroxyethyl]-2-[(2S,4S)-2-[(Z)-3-(N-methylamino)-2-methyl-1-propenyl]pyrrolidin-4-ylthio]-1-methyl-1-carbapen-2-em-3-carboxylic acid hydrochloride], the “Relative antibacterial potency” value stood at 19.7 in series [1] (Meth-R S. aureus) and 13.4 in series [1] (THM-R P.aeruginosa). For the same molecule, the MIC in series [2] (setting [4]) is 0.78 µg/mL; in series [2] (setting [5]), 3.13 µg/mL; in series [2] (setting [6]) it was < 0.006 µg/mL; in series [2] (setting [7]) it was 1.56 µg/mL; in series [2] (setting [8]) it was < 0.006 µg/mL. The DHP-I susceptibility in series [3] (setting [9]) was determined as 0.10.

On to `C[C@@H](O)[C@H]1C(=O)N2C(C(=O)O)=C(SCCN=CN)C[C@H]12` [imipenem, (5R,6S,8R)-3-[[2-(formimidoylamino)ethyl]thio]-6-(1-hydroxyethyl)-7-oxo-1-azabicyclo[3.2.0]hept-2-en-2-carboxylic acid monohydrate, reference compound], for which the results for the “Relative antibacterial potency” value in series [1] (Meth-R S. aureus) and in series [1] (THM-R P.aeruginosa) were 2.57 and 2.0, respectively. Further, the MIC in series [2] (Pseudomonas aeruginosa, 16 h, read-out: Minimum Inhibitory Concentration(MIC), P. aeruginosa MB 5002) was 1.56 µg/mL; in series [2] (Pseudomonas aeruginosa, 16 h, read-out: Minimum Inhibitory Concentration(MIC), P. aeruginosa MB 5178), 25 µg/mL; in series [2] (Staphylococcus aureus, 209P / NIHJJC1, 16 h, read-out: Minimum Inhibitory Concentration(MIC), S. aureus 209P NIHJ JC1) it was < 0.006 µg/mL; in series [2] (Staphylococcus aureus, 16 h, read-out: Minimum Inhibitory Concentration(MIC), S. aureus BB 5939 (β-lactamase producing microorganism)) it was 6.25 µg/mL; in series [2] (Staphylococcus aureus, 16 h, read-out: Minimum Inhibitory Concentration(MIC), S. aureus MB 4970) it was 0.012 µg/mL. Besides, the DHP-I susceptibility in series [3] (setting [9]) is on record as 1.0. Moreover, the “DHP-I susceptibility, ratio to imipenem” value in series [3] (the smaller the numerical value, the higher the stability) is on record as 1.0.
